This passage reports IC50 and Ki results from ChEMBL document CHEMBL1133027, “Novel inhibitors of HIV protease: design, synthesis and biological evaluation of picomolar inhibitors containing cyclic P1/P2 scaffolds” (Bioorg Med Chem Lett, 2000).

pIC50, pKi: −log10 of the molar value.

Experiment [1] relates to MT4. Kind of experiment: Compound was evaluated for its antiviral inhibition in MT-4 cell culture. Format: functional, cell-based. The conditions noted are these: Homo sapiens.
Experiment [2] has as its target Human immunodeficiency virus type 1 protease (Human immunodeficiency virus 1, UniProt Q72874). The experiment can be described thus: Inhibition of HIV protease.

In general, pIC50 refers to −log10 of the IC50, conventionally taken in molar units. Lower therefore signals a large IC50. `CC(C)(C)NC(=O)[C@@H]1C[C@@H]2CCCC[C@@H]2CN1C[C@@H](O)[C@H](Cc1ccccc1)NC(=O)[C@H](CC(N)=O)NC(=O)c1ccc2ccccc2n1` showed a negative logarithm of the IC50 (pIC50) in experiment [1] of 7.70. Still for that read-out and setting: for `CC(C)CN(C[C@@H](O)[C@H](Cc1ccccc1)NC(=O)O[C@H]1CCOC1)S(=O)(=O)c1ccc(N)cc1` the value was 7.00.

Broadly, the pKi is −log10 of the Ki, conventionally taken in molar units. A lower pKi goes with a large Ki. As to `O=C(N[C@H]1c2ccccc2C[C@H]1O)[C@H](Cc1ccccc1)C[C@H](O)CN1C(=O)CC[C@@H]1Cc1ccccc1`, the negative-log IC50 (pIC50) in experiment [1] is < 4.30. The molecule further had a pKi in experiment [2] of 6.48. For `O=C(N[C@H]1c2ccccc2C[C@H]1O)[C@H](Cc1ccccc1)C[C@H](O)CN1C(=O)N(Cc2ccccc2)C[C@@H]1Cc1ccccc1` the same measures were 6.52 and 8.92. With `O=C(N[C@H]1c2ccccc2C[C@H]1O)[C@H](Cc1ccccc1)C[C@H](O)CN1C(=O)[C@@H](Cc2ccccc2)C[C@@H]1Cc1ccccc1`, the negative logarithm of the IC50 (pIC50) in experiment [1] is 6.52. In experiment [2], this molecule had a pKi of 10.30. Consider `O=C(N[C@H]1c2ccccc2C[C@H]1O)[C@H](Cc1ccccc1)C[C@H](O)CN1C(=O)[C@H](Cc2ccccc2)C[C@@H]1Cc1ccccc1`, for which, in experiment [2], the pKi was < 9.30.

In the case of `O=C(N[C@H]1c2ccccc2C[C@H]1O)[C@H](Cc1ccccc1)C[C@H](O)CN1[C@@H](Cc2ccccc2)CN(Cc2ccccc2)S1(=O)=O`, the negative-log IC50 (pIC50) in experiment [1] is 5.82. In experiment [2], this molecule gave a negative-log Ki (pKi) of 9.10. Turning to `O=C(N[C@H]1c2ccccc2C[C@H]1O)[C@H](Cc1ccccc1)C[C@@H](O)CN1C(=O)CC[C@@H]1Cc1ccccc1`, the negative logarithm of the IC50 (pIC50) in experiment [1] was < 4.30. `O=C1N[C@H](Cc2ccccc2)C(=O)[C@H]1Cc1ccccc1` gave a negative-log IC50 (pIC50) in experiment [1] of 6.52. For the same molecule, the pKi in experiment [2] was 10.30. For the molecule `O=C(N[C@H]1c2ccccc2C[C@H]1O)[C@H](Cc1ccccc1)C[C@H](O)CN1[C@@H](Cc2ccccc2)C[C@H](Cc2ccccc2)S1(=O)=O`, the negative-log Ki (pKi) in experiment [2] was 7.80. Molecule `CC(C)(C)NC(=O)[C@@H]1CN(Cc2cccnc2)CCN1C[C@@H](O)C[C@@H](Cc1ccccc1)C(=O)N[C@H]1c2ccccc2C[C@H]1O` showed a pIC50 in experiment [1] of 7.40. The same measure, in the same setting: for `Cc1c(O)cccc1C(=O)N[C@@H](CSc1ccccc1)[C@H](O)CN1C[C@H]2CCCC[C@H]2C[C@H]1C(=O)NC(C)(C)C` the value was 7.30; for `CC(C)c1nc(CN(C)C(=O)N[C@H](C(=O)N[C@@H](Cc2ccccc2)C[C@H](O)[C@H](Cc2ccccc2)NC(=O)OCc2cncs2)C(C)C)cs1` [RITONAVIR], 6.68.
